# ChEMBL document CHEMBL1201862, “PubChem BioAssay data set” (2004)
#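 Growth conditions: 96-well plates. Treatment: test compound, 48 hours, 5 concentrations. Analysis: linear interpolation between bracketing concentrations; unreached endpoints set to highest concentration. GI50 marks 50% less growth.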 Calls of active or inactive are those of the source. Cut-off read from the data, not from the text of the source: active = GI50 up to about 1.1 µM and inactive = higher.
# Key:
# Assay in all cases: NCI tumour cell line growth inhibition, 48 h
# DMS-273 = test system: DMS-273
# LXFL 529 = test system: LXFL 529
# M19-MEL = test system: M19-MEL
# KM-20L2 = test system: KM-20L2
# DMS-114 = test system: DMS-114
# HOP-18 = test system: HOP-18
# SNB-78 = test system: SNB-78
# XF498 = test system: XF498
# RXF 631 = test system: RXF 631
SMILES,GI50 (DMS-273),GI50 (LXFL 529),GI50 (M19-MEL),GI50 (KM-20L2),GI50 (DMS-114),GI50 (HOP-18),GI50 (SNB-78),GI50 (XF498),GI50 (RXF 631)
CC12CCC3(C1)[C@H](CC2=O)C[C@@H](OC(=O)c1ccccc1)C1C(C)(CO)CCC[C@@]13C (stereo not given in full),0.625 µM (active),0.6 µM (active),3.4 µM (inactive),1.82 µM (inactive),0.156 µM (active),26.7 µM (inactive),34 µM (inactive),,
O=C(O)C12CCCC(CCC1)C2,> 100 µM (inactive),> 100 µM (inactive),,,> 100 µM (inactive),,> 100 µM (inactive),> 100 µM (inactive),> 100 µM (inactive)
O=C(CCC1C(=O)NC(=S)NC1=O)c1ccc2ccccc2c1,> 100 µM (inactive),> 100 µM (inactive),> 100 µM (inactive),> 100 µM (inactive),> 100 µM (inactive),> 100 µM (inactive),> 100 µM (inactive),,
COC1CCC(O)C(CO)O1 (stereo not given),,50.6 µM (inactive),60.7 µM (inactive),> 100 µM (inactive),,,> 100 µM (inactive),> 100 µM (inactive),
Nc1ccc2c(c1)CN1C(=O)c3ccccc3C1=N2 [DANIQUIDONE],32.4 µM (inactive),82.8 µM (inactive),> 116 µM (inactive),59 µM (inactive),70.5 µM (inactive),108 µM (inactive),25 µM (inactive),,
c1ccc2c(c1)SP1Sc3ccccc3P21 (stereo not given),> 100 µM (inactive),,> 100 µM (inactive),> 78 µM (inactive),> 79.3 µM (inactive),18.1 µM (inactive),> 100 µM (inactive),> 100 µM (inactive),
O=c1ccc2nc3cc(Br)ccc3sc-2c1,> 100 µM (inactive),89.7 µM (inactive),55.1 µM (inactive),> 100 µM (inactive),> 100 µM (inactive),,> 100 µM (inactive),,
CC1(C)OC2CC(=O)OCC23C1CC(=O)C1(C)C3CCC2(C)C(c3ccoc3)OC(=O)C3OC321 (stereo not given),> 125 µM (inactive),,> 125 µM (inactive),> 125 µM (inactive),> 125 µM (inactive),> 125 µM (inactive),> 125 µM (inactive),> 125 µM (inactive),
Cc1ccc2c(c1)C(=O)N(N(C)C)CC(=O)N2,> 100 µM (inactive),> 100 µM (inactive),> 100 µM (inactive),,> 100 µM (inactive),> 100 µM (inactive),> 100 µM (inactive),> 100 µM (inactive),
Nc1ccc2c(c1)C(=O)N(O)C2=O,,> 100 µM (inactive),> 100 µM (inactive),> 100 µM (inactive),> 100 µM (inactive),,> 100 µM (inactive),> 100 µM (inactive),
Cc1cccc(C(C)C)c1NC(=O)CC1Sc2ccccc2NC1=O (stereo not given),45.8 µM (inactive),79.1 µM (inactive),,> 100 µM (inactive),23.4 µM (inactive),> 100 µM (inactive),,> 100 µM (inactive),85.1 µM (inactive)
CN(C)/C(=N\C#N)NCc1ccccc1,> 100 µM (inactive),> 100 µM (inactive),> 100 µM (inactive),> 100 µM (inactive),,,> 100 µM (inactive),,
O=c1[nH]c(=O)n(C2CC(O)C(O)C(CO)O2)cc1F (stereo not given),,> 100 µM (inactive),> 100 µM (inactive),> 100 µM (inactive),> 100 µM (inactive),> 100 µM (inactive),> 100 µM (inactive),> 100 µM (inactive),> 100 µM (inactive)
